Data: US9302999B2, “Substituted triazoles as herbicides” (E. I. DU PONT DE NEMOURS AND COMPANY, priority 2012, dated 2016)

How the values were obtained:
Format in all cases: in vivo
[1] = tested on: barnyardgrass (Echinochloa crus-galli); test: Test A pre-/postemergence: barnyardgrass
Method in brief: (§1)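 Whole-plant greenhouse assay in loam/sand. Preemergence directed soil spray plus simultaneous postemergence spray (one- to two-leaf stage, 2–10 cm). Rated visually ~10 days later, 0 = no effect, 100 = complete control.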

[2] = tested on: crabgrass, large (large crabgrass, Digitaria sanguinalis); test: Test A pre-/postemergence: crabgrass, large
Method in brief: as §1

[3] = tested on: foxtail, giant (giant foxtail, Setaria faberii); test: Test A pre-/postemergence: foxtail, giant
Method in brief: as §1

[4] = tested on: morningglory (Ipomoea spp.); test: Test A pre-/postemergence: morningglory
Method in brief: as §1

[5] = tested on: pigweed (Amaranthus retroflexus); test: Test A pre-/postemergence: pigweed
Method in brief: as §1

[6] = tested on: velvetleaf (Abutilon theophrasti); test: Test A pre-/postemergence: velvetleaf
Method in brief: as §1

[7] = tested on: wheat (Triticum aestivum); test: Test A pre-/postemergence: wheat
Method in brief: as §1

corn (Zea mays) = test: Test A pre-/postemergence: corn
Method in brief: as §1

rice (Oryza sativa) = test: Test B flooded paddy: rice; conditions: Flood, applied to paddy water at 2-leaf stage, visually evaluated after 13 to 15 days
Method in brief: (§2)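 At two leaves, seedlings received the test compound via the paddy water, pots having been flooded 3 cm over the soil surface and kept so. Greenhouse-held for 13 to 15 days, then judged by eye against controls on a scale running 0 (no effect) to 100 (complete control).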

[8] = tested on: sedge, umbrella (small-flower umbrella sedge Cyperus difformis); test: Test B flooded paddy: sedge, umbrella; conditions: Flood, applied to paddy water at 2-leaf stage, visually evaluated after 13 to 15 days
Method in brief: as §2

[9] = tested on: ducksalad (Heteranthera limosa); test: Test B flooded paddy: ducksalad; conditions: Flood, applied to paddy water at 2-leaf stage, visually evaluated after 13 to 15 days
Method in brief: as §2

[10] = tested on: barnyardgrass (Echinochloa crus-galli); test: Test B flooded paddy: barnyardgrass; conditions: Flood, applied to paddy water at 2-leaf stage, visually evaluated after 13 to 15 days
Method in brief: as §2

[11] = Postemergence, 125 g ai/ha, 0 to 100 scale, 0 is no effect, 100 is complete control
[12] = Postemergence, 500 g ai/ha, 0 to 100 scale, 0 is no effect, 100 is complete control
[13] = Preemergence, 125 g ai/ha, 0 to 100 scale where 0 is no effect and 100 is complete control
[14] = Preemergence, 500 g ai/ha, 0 to 100 scale (0 no effect, 100 complete control)

| Structure (SMILES) | Plant response rating, Barnyardgrass [1, 11] | Barnyardgrass plant response rating [1, 12] | Plant response rating, Barnyardgrass [1, 13] | Plant response rating, Barnyardgrass [1, 14] | Plant response rating, Crabgrass, Large [2, 11] | Crabgrass, Large plant response rating [2, 12] | Plant response rating, Crabgrass, Large [2, 13] | Plant response rating, Crabgrass, Large [2, 14] | Plant response rating, Foxtail, Giant [3, 11] | Foxtail, Giant plant response rating [3, 12] | Plant response rating, Foxtail, Giant [3, 13] | Plant response rating, Foxtail, Giant [3, 14] | Plant response rating, Morningglory [4, 11] | Morningglory plant response rating [4, 12] | Plant response rating, Morningglory [4, 13] | Plant response rating, Morningglory [4, 14] | Plant response rating, Pigweed [5, 11] | Pigweed plant response rating [5, 12] | Plant response rating, Pigweed [5, 13] | Plant response rating, Pigweed [5, 14] | also measured |
| --- | --- | --- | --- | --- | --- | --- | --- | --- | --- | --- | --- | --- | --- | --- | --- | --- | --- | --- | --- | --- | --- |
| CCOc1nn(-c2ccc(F)cc2)nc1C(=O)c1ccnc(C(F)(F)F)c1 [Compound 177] | 0 | 20 | 0 | 70 | 10 | 60 | 90 | 100 | 20 | 70 | 90 | 100 | 90 | 100 | 20 | 40 | 60 | 100 | 10 | 50 | Plant response rating, Velvetleaf [6, 11]: 20; Velvetleaf plant response rating [6, 12]: 50; Plant response rating, Velvetleaf [6, 13]: 0; Plant response rating, Velvetleaf [6, 14]: 20; Plant response rating, Wheat [7, 11]: 20; Wheat plant response rating [7, 12]: 30; Plant response rating, Wheat [7, 13]: 0; Plant response rating, Wheat [7, 14]: 0; Plant response rating, Corn (corn (Zea mays); [11]): 20; Corn plant response rating (corn (Zea mays); [12]): 30; Plant response rating, Corn (corn (Zea mays); [13]): 0; Plant response rating, Corn (corn (Zea mays); [14]): 0; Plant response rating, Rice (0 to 100 scale, 0 is no effect, 100 is complete control) (rice (Oryza sativa); 125 g ai/ha): 0; Plant response rating, Sedge, Umbrella (0 to 100 scale, 0 is no effect, 100 is complete control) ([8]; 125 g ai/ha): 40; Plant response rating, Ducksalad (0 to 100 scale, 0 is no effect, 100 is complete control) ([9]; 125 g ai/ha): 0; Plant response rating, Barnyardgrass (0 to 100 scale, 0 is no effect, 100 is complete control) ([10]; 125 g ai/ha): 0 |
| CCc1nn(-c2ccc(F)c(C(F)(F)F)c2)nc1Oc1ccnc(C(F)(F)F)c1 [Compound 180] | 50 | 80 | 60 | 80 | 90 | 90 | 100 | 100 | 90 | 90 | 100 | 100 | 100 | 100 | 40 | 70 | 100 | 100 | 100 | 100 | Plant response rating, Velvetleaf [6, 11]: 70; Velvetleaf plant response rating [6, 12]: 100; Plant response rating, Velvetleaf [6, 13]: 50; Plant response rating, Velvetleaf [6, 14]: 60; Plant response rating, Wheat [7, 11]: 30; Wheat plant response rating [7, 12]: 40; Plant response rating, Wheat [7, 13]: 20; Plant response rating, Wheat [7, 14]: 40; Plant response rating, Corn (corn (Zea mays); [11]): 20; Corn plant response rating (corn (Zea mays); [12]): 30; Plant response rating, Corn (corn (Zea mays); [13]): 10; Plant response rating, Corn (corn (Zea mays); [14]): 20; Plant response rating, Rice (0 to 100 scale, 0 is no effect, 100 is complete control) (rice (Oryza sativa); 125 g ai/ha): 30; Plant response rating, Sedge, Umbrella (0 to 100 scale, 0 is no effect, 100 is complete control) ([8]; 125 g ai/ha): 70; Plant response rating, Ducksalad (0 to 100 scale, 0 is no effect, 100 is complete control) ([9]; 125 g ai/ha): 60; Plant response rating, Barnyardgrass (0 to 100 scale, 0 is no effect, 100 is complete control) ([10]; 125 g ai/ha): 0 |
| CCc1nn(-c2ccc(F)cc2F)nc1Oc1ccnc(C(F)F)c1 [Compound 181] | 0 | 30 | 0 | 20 | 50 | 50 | 10 | 80 | 30 | 80 | 10 | 80 | 90 | 90 | 0 | 10 | 90 | 100 | 60 | 90 | Plant response rating, Velvetleaf [6, 11]: 30; Velvetleaf plant response rating [6, 12]: 70; Plant response rating, Velvetleaf [6, 13]: 0; Plant response rating, Velvetleaf [6, 14]: 0; Plant response rating, Wheat [7, 11]: 0; Wheat plant response rating [7, 12]: 20; Plant response rating, Wheat [7, 13]: 0; Plant response rating, Wheat [7, 14]: 0; Plant response rating, Corn (corn (Zea mays); [11]): 0; Corn plant response rating (corn (Zea mays); [12]): 10; Plant response rating, Corn (corn (Zea mays); [13]): 0; Plant response rating, Corn (corn (Zea mays); [14]): 0; Plant response rating, Rice (0 to 100 scale, 0 is no effect, 100 is complete control) (rice (Oryza sativa); 125 g ai/ha): 20; Plant response rating, Sedge, Umbrella (0 to 100 scale, 0 is no effect, 100 is complete control) ([8]; 125 g ai/ha): 0; Plant response rating, Ducksalad (0 to 100 scale, 0 is no effect, 100 is complete control) ([9]; 125 g ai/ha): 0; Plant response rating, Barnyardgrass (0 to 100 scale, 0 is no effect, 100 is complete control) ([10]; 125 g ai/ha): 0 |
| CCCCc1nn(-c2ccc(C(F)(F)F)cc2)nc1Oc1ccnc(C(F)(F)F)c1 [Compound 184] | 10 | 30 | 0 | 50 | 50 | 90 | 70 | 100 | 30 | 80 | 70 | 90 | 30 | 100 | 0 | 10 | 100 | 100 | 90 | 100 | Plant response rating, Velvetleaf [6, 11]: 40; Velvetleaf plant response rating [6, 12]: 90; Plant response rating, Velvetleaf [6, 13]: 0; Plant response rating, Velvetleaf [6, 14]: 30; Plant response rating, Wheat [7, 11]: 10; Wheat plant response rating [7, 12]: 20; Plant response rating, Wheat [7, 13]: 0; Plant response rating, Wheat [7, 14]: 0; Plant response rating, Corn (corn (Zea mays); [11]): 10; Corn plant response rating (corn (Zea mays); [12]): 20; Plant response rating, Corn (corn (Zea mays); [13]): 0; Plant response rating, Corn (corn (Zea mays); [14]): 0; Plant response rating, Rice (0 to 100 scale, 0 is no effect, 100 is complete control) (rice (Oryza sativa); 250 g ai/ha): 25; Plant response rating, Sedge, Umbrella (0 to 100 scale, 0 is no effect, 100 is complete control) ([8]; 250 g ai/ha): 60; Plant response rating, Ducksalad (0 to 100 scale, 0 is no effect, 100 is complete control) ([9]; 250 g ai/ha): 0; Plant response rating, Barnyardgrass (0 to 100 scale, 0 is no effect, 100 is complete control) ([10]; 250 g ai/ha): 25 |
| CCOc1nn(-c2ccc(F)cc2F)nc1Cc1ccnc(C(F)(F)F)c1 [Compound 190] | 100 | 100 | 100 | 100 | 100 | 100 | 100 | 100 | 100 | 100 | 100 | 100 | 100 | 100 | 80 | 80 | 100 | 100 | 100 | 100 | Plant response rating, Velvetleaf [6, 11]: 100; Velvetleaf plant response rating [6, 12]: 100; Plant response rating, Velvetleaf [6, 13]: 40; Plant response rating, Velvetleaf [6, 14]: 100; Plant response rating, Wheat [7, 11]: 70; Wheat plant response rating [7, 12]: 100; Plant response rating, Wheat [7, 13]: 60; Plant response rating, Wheat [7, 14]: 80; Plant response rating, Corn (corn (Zea mays); [11]): 60; Corn plant response rating (corn (Zea mays); [12]): 90; Plant response rating, Corn (corn (Zea mays); [13]): 30; Plant response rating, Corn (corn (Zea mays); [14]): 90; Plant response rating, Rice (0 to 100 scale, 0 is no effect, 100 is complete control) (rice (Oryza sativa); 125 g ai/ha): 50; Plant response rating, Sedge, Umbrella (0 to 100 scale, 0 is no effect, 100 is complete control) ([8]; 125 g ai/ha): 95; Plant response rating, Ducksalad (0 to 100 scale, 0 is no effect, 100 is complete control) ([9]; 125 g ai/ha): 70; Plant response rating, Barnyardgrass (0 to 100 scale, 0 is no effect, 100 is complete control) ([10]; 125 g ai/ha): 70 |
